Assay results reported in ChEMBL document CHEMBL2311410, “Facile regioselective synthesis of novel bioactive thiazolyl-pyrazoline derivatives via a three-component reaction and their antimicrobial activity” (2013).

Tests used:
Type in all cases: functional
[1] = tested on: Staphylococcus aureus; experiment: Antimicrobial activity against Staphylococcus aureus ATCC 29213 assessed as zone of inhibition after 24 hrs by agar well-diffusion method
[2] = tested on: Pseudomonas aeruginosa; experiment: Antimicrobial activity against Pseudomonas aeruginosa ATCC 27853 assessed as zone of inhibition after 24 hrs by agar well-diffusion method
[3] = tested on: Escherichia coli; experiment: Antimicrobial activity against Escherichia coli ATCC 25922 assessed as zone of inhibition after 24 hrs by agar well-diffusion method

Row | Compound | inhibition zone (IZ) [1] [mm] | inhibition zone (IZ) [2] [mm] | inhibition zone (IZ) [3] [mm]
1 | COc1ccc(C2CC(c3ccccc3)=NN2c2nc(-c3ccccc3)cs2)cc1 (configuration not stated) | 6 | 7 | –
2 | GENTAMICIN | 23 | 21 | 22
3 | c1ccc(-c2csc(N3N=C4c5ccccc5CCC4C3c3cccs3)n2)cc1 (configuration not stated) | – | 16 | 8
4 | c1ccc(C2=NN(c3nc(-c4ccccc4)cs3)C(c3cccs3)C2)cc1 (configuration not stated) | 9 | 19 | –
5 | Clc1ccc(C2C3CCc4ccccc4C3=NN2c2nc(-c3ccccc3)cs2)cc1 (configuration not stated) | – | 9 | 7
6 | COc1ccc(C2C3CCc4ccccc4C3=NN2c2nc(-c3ccccc3)cs2)cc1 (configuration not stated) | 8 | 9 | –
7 | COc1ccc(C2=NN(c3nc(-c4ccccc4)cs3)C(c3ccc(OC)cc3)C2)cc1 (configuration not stated) | – | 18 | 8
8 | COc1ccc(C2=NN(c3nc(-c4ccccc4)cs3)C(c3ccc(C)cc3)C2)cc1 (configuration not stated) | 7 | 17 | –
9 | COc1ccc(C2CC(c3ccc(C)cc3)=NN2c2nc(-c3ccccc3)cs2)cc1 (configuration not stated) | – | 19 | 7
10 | Cc1ccc(C2=NN(c3nc(-c4ccccc4)cs3)C(c3ccc(C)cc3)C2)cc1 (configuration not stated) | 7 | 16 | 7
